The record followed here is US4369312A, “Method of producing oxo-containing azetidinone compounds” (Fujisawa Pharmaceutical Co., Ltd., priority 1980, dated 1983).

Holding throughout (test): In vitro antimicrobial activity, two-fold agar-plate dilution method (MIC)
Common to all, as to assay type: cell-based

Experiment [1] relates to Bacillus subtilis ATCC 6633. Conditions: 37° C., 20 hours. As to the method:
(§1) In vitro Antimicrobial activity was determined by the two-fold agar-plate dilution method as described below.
(§2) One loopful of an overnight culture of each test strain in Tripticase-soy broth (approximately 10^8 viable cells per ml) was streaked on heart infusion agar (HI-agar) containing graded concentrations of antimicrobial agents, and the minimal inhibitory concentration (MIC) was expressed in term of μg/ml after incubation at 37° C. for 20 hours.

Experiment [2] relates to Escherichia coli 31. Conditions: HI-agar, 37° C., 20 hours. As for the experimental part: as §1, §2
Experiment [3] deals with Staphylococcus aureus 209P JC-1. Conditions: HI-agar, 37° C., 20 hours. As for the experimental part:
as §1, §2

The mark [4] stands for this setting: ATCC6633, HI-agar, read-out: MIC.

In brackets after ≈: the same amount, converted by molar mass. Like-named read-outs stand apart in the source and are kept apart here.

The term MIC denotes the least concentration at which growth counts as inhibited. As to `CC(=O)OCC1=C(C(=O)OC(c2ccccc2)c2ccccc2)N2C(=O)C(=O)C2SC1` (stereo not drawn) [Example 2(3), benzhydryl 7-oxocephalosporanate], the MIC in experiment [1] (HI-agar) came to 0.78 µg/mL (≈ 1.78 µM); in experiment [2] it was 1.56 µg/mL (≈ 3.57 µM); in experiment [3], 3.13 µg/mL (≈ 7.15 µM).
Take `CON(C(=O)Cc1cccs1)[C@@H]1C(=O)N2C(C(=O)O)=C(COC(C)=O)CS[C@H]12` [Test compound 1, Sodium 7-[N-methoxy-2-(2-thienyl)acetamido]cephalosporanate]: the values for the MIC in experiment [1] (setting [4]), in experiment [2] (read-out: MIC) and in experiment [3] (read-out: MIC) were 0.78 µg/mL, 6.25 µg/mL and 6.25 µg/mL, respectively.
With `Cn1nnnc1SCC1=C(C(=O)O)N2C(=O)[C@@H](N(O)C(=O)Cc3cccs3)[C@H]2SC1` [Test compound 3, 7-[N-Hydroxy-2-(2-thienyl)acetamido]-3-(1-methyl-1H-tetrazol-5-ylthiomethyl)-3-cephem-4-carboxylic acid], the MIC in experiment [1] (setting [4]) stood at 3.13 µg/mL (≈ 6.68 µM); in experiment [2] (read-out: MIC), 6.25 µg/mL (≈ 13.3 µM); in experiment [3] (read-out: MIC), 6.25 µg/mL (≈ 13.3 µM).
